Measured values reported in US20200270576A1, “Ex Vivo Maintenance and Expansion of Stem Cells” (priority 2017, published 2020).

Assays:
CD150+CD48-LSK HSCs = test: Frequency of CD150+CD48-LSK cells in 10-day HSC cultures; type: cell-based, mouse; conditions: 10 HSCs/well, 10 days culture
Method: FIG. 18 depicts that addition of 17-AAG to culture medium increased the frequency of CD150^+CD48^−LSK HSCs in 10-day HSC cultures as compared to controls.
To further test if HSP90 inhibitors promote HSC maintenance/expansion, we cultured purified HSCs (10/well) for 10 days in the presence or absence of 17-AAG, and assessed the frequency of CD150^+CD48^−LSK cells in culture. CD150^+CD48^−LSK cells were about ˜4-fold enriched when 17-AAG was added to the culture medium (FIG. 18). […] Similar results are expected for other HSP90 inhibitors, TRiC inhibitors and agonists of Hsf1.

Hsf1 = Hsf1 expression and localization by immunofluorescence in cultured HSCs; type: cell-based, mouse; conditions: 10 days culture; 17-AAG 5 nM, HSF1A 8 uM final concentration
Source text: FIG. 14 depicts representative immunofluorescence staining of HSCs cultured for 10 days in the presence or absence of 17-AAG or HSF1A. Addition of 17-AAG or HSF1A to culture medium increased Hsf1 accumulation in the nucleus of cultured HSCs. Hsf1-deficient HSCs and cells stained without primary antibody (Neg Con) are shown as controls.
Since Hsf1 promoted HSC maintenance and protein homeostasis in vitro (FIG. 13), we investigated whether increasing Hsf1 expression or activity would further enhance HSC maintenance. […] Hsf1 can become active as a transcription factor when it translocates to the nucleus. We thus tested whether inhibitors of HSP90 or TRiC would promote Hsf1 accumulation in the nucleus of cultured HSCs by culturing HSCs for 10 days in the presence or absence of 17-AAG (HSP90 inhibitor; 5 nM final concentration) or HSF1A (TRiC inhibitor; 8 uM final concentration), and assessed Hsf1 expression and localization by immunofluorescence.

HSCs [1] = test: Retroviral (MSCV-IRES-GFP) transduction of HSCs, GFP in colonies; type: cell-based, mouse; conditions: medium supplemented with 17-AAG; colonies assessed ten days after plating
Method: FIG. 19 depicts that addition of 17-AAG to culture medium supported highly efficient genetic modification of HSCs. The frequency of HSCs that were transduced with a GFP encoding retrovirus in culture is shown.
We tested whether the presence of HSP90 inhibitors in cell culture medium permitted efficient genetic modification of HSCs. Purified HSCs were cultured overnight in medium supplemented with 17-AAG. Retroviral supernatant (containing retrovirus encoding MSCV-IRES-GFP) was added two times (two hours apart), and the cells were cultured for an additional 24 hours. After culture, the cells were plated in methylcellulose semi-solid medium supplemented with hematopoietic cytokines. Ten days later, individual colonies (derived from single HSCs) were assessed for GFP expression by flow cytometry. […] We expect this will also be true for other HSP90 inhibitors, TRiC inhibitors and Hsf1 agonists. In addition, we expect that these agents will also be compatible for genetic modification of stem cells by other technologies (in addition to retrovirus), including but not limited to lentivirus, CRISPR and other genetic modification or editing technologies.

HSCs [2] = test: TMI fluorescence (unfolded protein abundance) in cultured HSCs; type: cell-based, mouse; conditions: 18 hours in culture
Method: FIG. 15 depicts that addition of 17-AAG to culture medium reduced TMI fluorescence (unfolded protein abundance) within cultured HSCs (18 hour cultures shown).
Hsf1 promoted protein homeostasis maintenance in cultured HSCs (FIG. 13B), and 17-AAG promoted Hsf1 accumulation in cultured HSCs (FIG. 14). We thus investigated whether addition of 17-AAG to culture medium could promote protein homeostasis maintenance in HSCs. To test this, HSCs were cultured in the presence or absence (vehicle only; DMSO) of 17-AAG. After 18 hours in culture, we assessed protein homeostasis by quantifying unfolded protein abundance based on TMI fluorescence.

[3] = system: Hsf1-deficient and control HSCs; test: Competitive transplantation of cultured wild-type and Hsf1-deficient HSCs; type: cell-based, mice; conditions: 12 weeks after transplantation
Source text: FIG. 17 depicts that Hsf1 is required for 17-AAG and HSF1A to enhance HSC maintenance and expansion in vitro. Donor cell engraftment 12 weeks after transplantation of 10 wild-type and Hsf1-deficient HSCs cultured for 10 days in the presence or absence of 17-AAG, HSF1A or DMSO. Cells were transplanted with 2×10^5 freshly isolated congenic bone marrow cells (n=7-9; *P<0.05, **P<0.01).
We tested whether the positive effects of 17-AAG and HSF1A on HSC maintenance/expansion in vitro were mediated by Hsf1. Purified Hsf1-deficient and control HSCs were sorted from adult bone marrow (CD45.2^+) into 96-well plates (10/well) containing HSC medium supplemented with 17-AAG, HSF1A or vehicle (DMSO). HSCs were cultured for 10 days and competitively transplanted with 2×10^5 freshly isolated congenic bone marrow cells (CD45.1^+) into irradiated mice (CD45.1^+). Recipient mice were bled monthly to assess levels of donor-derived CD45.2^+ hematopoietic cells. […] However, the positive effect of 17-AAG and HSF1A was lost with Hsf1-deficient HSCs (FIG. 17).

HSCs [4] = test: Competitive transplantation of HSCs cultured 10 days, with serial transplantation; type: cell-based, murine
Source text: FIG. 16A-B depict that HSC functionality is maintained and expanded in vitro by interventions that can induce/activate Hsf1. FIG. 16A depicts donor cell engraftment 16 weeks after transplantation of 10 HSCs cultured for 10 days in the presence or absence of an HSP90 inhibitor (17-AAG) or TRiC inhibitor (HSF1A) or from 10 freshly isolated HSCs. Cells were transplanted with 2×10^5 freshly isolated congenic bone marrow cells (n=3 independent experiments with 3-5 recipients/condition/experiment). […] Addition of either 17-AAG or HSF1A increased the reconstituting potential of cultured HSCs as compared to both control cultured and freshly isolated HSCs.
To test if HSCs depend on Hsf1 for their maintenance in vitro, we conditionally deleted Hsf1 from HSCs, cultured them for 10 days and assessed their long-term multilineage reconstituting activity in competitive transplantation assays. The assay for testing HSC function is to assess their capacity to give long-term (16+ week) multilineage (B cell, T cell and myeloid cell) reconstitution of the blood system of an irradiated transplant recipient. A competitive transplantation assay provides a quantitative readout of HSC regenerative activity.
Modest declines in proteostasis impair HSC maintenance in vivo. […] This raises the possibility that increasing Hsf1 activity could promote HSC maintenance in vitro by enhancing proteostasis capacity. To test if HSP90 inhibitors or TRiC inhibitors promote HSC maintenance in vitro, purified HSCs were sorted from young adult murine bone marrow (CD45.1^+) into 96-well plates (10/well) containing our HSC medium supplemented with 17-AAG or HSF1A. HSCs were cultured for 10 days and competitively transplanted with 2×10^5 freshly isolated congenic bone marrow cells (CD45.2^+) into irradiated mice (CD45.2^+). Recipient mice were bled monthly (for 4 months) to assess levels of donor-derived CD45.1^+ hematopoietic cells. Self-renewal capacity of HSCs was assessed by serially transplanting hematopoietic cells from the primary recipients into secondary irradiated recipients (3×10^6 cells/recipient). […] Similar results are expected for other HSP90 or TRiC inhibitors.
To test if HSP90 inhibitors or TRiC inhibitors enable HSC expansion in vitro, purified HSCs were sorted from young adult bone marrow (CD45.1^+) into 96-well plates (10/well) containing HSC medium supplemented with 17-AAG or HSF1A. HSCs were cultured for 10 days and competitively transplanted with 2×10^5 freshly isolated congenic bone marrow cells (CD45.2^+) into irradiated mice (CD45.2^+). At the same time, 10 freshly isolated HSCs were transplanted with 2×10^5 freshly isolated congenic bone marrow cells into irradiated mice. Recipient mice were bled monthly (for 4 months) to assess levels of donor-derived CD45.1^+ hematopoietic cells. Self-renewal capacity of HSCs was assessed by serially transplanting hematopoietic cells (3×10^6 cells/recipient) into secondary irradiated recipients. […] Similar results are expected for other HSP90 or TRiC inhibitors.

SMILES: C=CCNC1=C2C[C@@H](C)C[C@H](OC)[C@H](O)[C@@H](C)/C=C(\C)[C@H](OC(N)=O)[C@@H](OC)/C=C\C=C(/C)C(=O)NC(=CC1=O)C2=O [17-AAG, 17-N-Allylamino-17-demethoxygeldanamycin]
- enrichment of CD150+CD48-LSK cells vs culture without agent (CD150+CD48-LSK HSCs): ~4 fold
- Hsf1 abundance in the nucleus of cultured HSCs (Hsf1): increase Hsf1 abundance in the nucleus
- colonies in which GFP was detected (HSCs [1]): 22/25
- frequency of GFP-positive colonies (transduced HSCs) (HSCs [1]): 88%
- TMI fluorescence (unfolded protein abundance) vs vehicle (DMSO) controls (HSCs [2]): less TMI fluorescence than controls
- donor cell reconstitution vs controls (DMSO), control HSCs ([3]; 10 HSCs cultured 10 days): higher levels of donor cell reconstitution as compared to controls
- positive effect on donor cell reconstitution with Hsf1-deficient HSCs ([3]; Hsf1-deficient HSCs cultured 10 days): lost
- donor cell reconstitution vs recipients of freshly isolated HSCs (HSCs [4]; 10 HSCs cultured 10 days vs 10 freshly isolated HSCs): higher levels of donor cell reconstitution as compared to recipients of freshly isolated HSCs
- donor cell reconstitution in primary recipients vs HSCs cultured without agent (HSCs [4]; 10 HSCs cultured 10 days, with 2x10^5 congenic bone marrow cells, 16 weeks): significantly higher levels of donor cell reconstitution as compared to controls
- fraction of recipients with long-term multilineage reconstitution vs HSCs cultured without agent (HSCs [4]; primary and secondary transplants, 16 week, >0.5% B-, T-, myeloid cells): greater fraction
- fraction of recipients with long-term multilineage reconstitution vs freshly isolated HSCs (HSCs [4]; secondary transplants): significantly greater fraction
- donor cell reconstitution in secondary recipients vs HSCs cultured without agent (HSCs [4]; serial transplant, 3x10^6 cells/recipient): even more pronounced
